In ChEMBL document CHEMBL3994622, “Design and synthesis of new RAF kinase-inhibiting antiproliferative quinoline derivatives. Part 2: Diarylurea derivatives” (Eur J Med Chem, 2017) one finds inhibition and growth data, which are given here for 2 compounds.

The structures appear in SMILES notation.

Test [1] concerns the target Tyrosine-protein kinase ABL1 (Homo sapiens) (UniProt P00519). Put plainly: Inhibition of human ABL1 at 10 uM using EAIYAAPFAKKK as substrate in presence of [33P]ATP by Hotspot assay relative to control.
For test [2], the system named is COLO 205. The test is described as follows: Growth inhibition of human COLO205 cells assessed as cell growth at 0.005 uM incubated for 48 hrs by sulforhodamine B assay relative to control. The format is functional. The following applies: COLO 205, 48 h, read-out: Activity. In general terms: Sulforhodamine B stains cellular protein and so reports cell mass.
For test [3], the system named is M14. The test is described as follows: Growth inhibition of human M14 cells assessed as cell growth at 0.5 uM incubated for 48 hrs by sulforhodamine B assay relative to control. The note with it: M14, 48 h, read-out: Activity. The test is classed as functional.

Chain of Tyrosine-protein kinase ABL1 (Homo sapiens) (P00519 whole entry): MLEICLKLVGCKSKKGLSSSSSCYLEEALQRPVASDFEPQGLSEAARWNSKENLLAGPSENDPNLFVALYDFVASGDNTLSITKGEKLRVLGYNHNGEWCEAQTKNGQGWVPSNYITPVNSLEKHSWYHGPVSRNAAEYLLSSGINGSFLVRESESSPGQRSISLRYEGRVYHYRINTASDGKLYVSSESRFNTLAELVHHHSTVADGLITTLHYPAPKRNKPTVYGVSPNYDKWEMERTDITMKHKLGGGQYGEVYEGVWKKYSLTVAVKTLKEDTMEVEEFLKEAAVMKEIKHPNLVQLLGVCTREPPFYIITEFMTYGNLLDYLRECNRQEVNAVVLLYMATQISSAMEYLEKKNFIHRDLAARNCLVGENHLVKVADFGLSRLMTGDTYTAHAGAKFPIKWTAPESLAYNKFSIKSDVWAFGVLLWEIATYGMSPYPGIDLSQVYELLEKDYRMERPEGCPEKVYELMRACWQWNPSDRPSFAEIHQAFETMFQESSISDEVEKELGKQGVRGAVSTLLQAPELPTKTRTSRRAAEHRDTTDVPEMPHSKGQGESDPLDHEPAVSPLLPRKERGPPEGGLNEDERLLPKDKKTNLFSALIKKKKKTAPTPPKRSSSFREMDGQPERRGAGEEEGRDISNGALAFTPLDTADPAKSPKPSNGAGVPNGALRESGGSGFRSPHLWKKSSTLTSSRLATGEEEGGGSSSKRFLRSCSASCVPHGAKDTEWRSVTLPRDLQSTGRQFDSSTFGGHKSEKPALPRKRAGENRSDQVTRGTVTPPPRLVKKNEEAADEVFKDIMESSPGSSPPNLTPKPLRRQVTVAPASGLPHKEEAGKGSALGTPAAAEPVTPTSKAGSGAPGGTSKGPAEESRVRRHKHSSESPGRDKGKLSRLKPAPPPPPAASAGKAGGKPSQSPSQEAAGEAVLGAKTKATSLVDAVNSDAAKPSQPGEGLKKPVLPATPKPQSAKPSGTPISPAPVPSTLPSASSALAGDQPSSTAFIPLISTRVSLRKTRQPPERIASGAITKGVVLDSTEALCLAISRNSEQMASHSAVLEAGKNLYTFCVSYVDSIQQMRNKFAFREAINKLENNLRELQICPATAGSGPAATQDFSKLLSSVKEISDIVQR

For orientation: inhibition means the change of the read-out against control, counted positive when it falls. `COc1cc2cc(Oc3ccc(NC(=O)Nc4ccc(Cl)c(C(F)(F)F)c4)cc3)c(C)nc2cc1OC`: in test [1], the inhibition was -6.78%. Regarding `COc1cc2cc(Oc3ccc(NC(=O)Nc4cccc(C(F)(F)F)c4)cc3)c(C)nc2cc1OC`, the growth at 0.005 µM in test [2] was determined as 97%. Besides, the growth at 0.5 µM in test [3] was determined as 90%.
